One experiment concerns the target S1P3 (Homo sapiens, UniProt Q99500). In words: Receptor binding assay, [33P]sphingosine 1-phosphate competition, S1P3 membranes, WGA SPA beads. The method, boiled down: (§1)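 Competition of [33P]S1P ([…]) on CHO cell membranes with WGA SPA beads in 50 mM HEPES pH 7.5, 5 mM MgCl2, 100 mM NaCl, 0.4% fatty acid-free BSA; 60 min at RT. Triplicates normalised to total binding and nonspecific binding (1000-fold excess unlabeled S1P).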

The target of experiment [1] is T1, S1P1 (Homo sapiens, UniProt P21453). In words: S1P1 internalization assay in S1P1-U2OS cells (S1P1-EGFP), cell imaging. Conditions: 1 hour incubation. It is filed as cell-based. Set-up: host or cells: U2OS (human bone osteosarcoma epithelial cells), CMV promoter, geneticin selection. The method, boiled down:
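U2OS cells stably expressing human S1P1-EGFP, plated overnight in 1% FCS medium, then serum-starved 2 h in 0.1% fatty-acid-free BSA before 1 h compound exposure at 37 °C. After PFA fixation and Hoechst staining, internalization imaged as EGFP spot count per nucleus.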
Target sequence in this assay (P21453 whole entry): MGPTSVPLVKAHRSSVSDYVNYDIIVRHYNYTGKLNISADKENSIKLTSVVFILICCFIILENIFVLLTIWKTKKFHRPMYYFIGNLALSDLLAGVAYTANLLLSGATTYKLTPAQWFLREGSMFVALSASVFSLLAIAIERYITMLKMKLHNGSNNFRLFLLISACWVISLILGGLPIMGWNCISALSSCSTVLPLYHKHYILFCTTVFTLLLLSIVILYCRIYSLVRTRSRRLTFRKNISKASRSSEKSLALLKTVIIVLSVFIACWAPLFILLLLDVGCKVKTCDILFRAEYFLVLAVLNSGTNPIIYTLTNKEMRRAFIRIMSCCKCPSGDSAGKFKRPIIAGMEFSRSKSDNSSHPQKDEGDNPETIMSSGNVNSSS

Experiment [2] deals with T1, S1P1. In words: Receptor binding assay, [33P]sphingosine 1-phosphate competition, S1P1 membranes, WGA SPA beads. The method, boiled down: as §1
Target sequence in this assay (P21453 whole entry, species assumed): as the sequence (P21453 whole entry) above
Where [3] appears, read: 96 well-plate, read-out: S1P3 binding Ki (M) (96 well-plate).
[4] abbreviates: 384 well-plate, read-out: S1P3 binding Ki (M) (384 well-plate).
[5] abbreviates: 96 well-plate, read-out: S1P1 binding Ki (M) (96 well-plate).
[6] abbreviates: 384 well-plate, read-out: S1P1 binding Ki (M) (384 well-plate).

Where a name gives a salt, the structure may show the parent alone. Read-outs that look alike come from different tables or passages of the source.

Results on 22 compounds are retold here after patent publication US8815919B2, “Oxadiazole derivatives” (Merck Serono SA, priority 2009, dated 2014).

Usually Ki stands for a measure of affinity in units of concentration, obtained from inhibition or displacement. One may read the EC50 as the concentration needed to bring the measured effect to its halfway point.

Sequence of S1P3 (Q99500 whole entry, species assumed): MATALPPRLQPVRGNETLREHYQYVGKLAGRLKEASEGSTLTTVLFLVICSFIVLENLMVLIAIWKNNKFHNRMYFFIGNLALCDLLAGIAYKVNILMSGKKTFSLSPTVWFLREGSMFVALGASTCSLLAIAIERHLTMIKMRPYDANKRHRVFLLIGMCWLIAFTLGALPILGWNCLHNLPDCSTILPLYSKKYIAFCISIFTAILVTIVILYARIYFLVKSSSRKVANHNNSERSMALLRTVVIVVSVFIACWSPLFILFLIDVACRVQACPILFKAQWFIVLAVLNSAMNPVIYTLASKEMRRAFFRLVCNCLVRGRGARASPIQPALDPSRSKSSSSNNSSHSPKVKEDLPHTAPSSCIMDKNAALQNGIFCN

Consider `COCc1cc(-c2nc(-c3ccc(CN(C)CC(=O)O)c(F)c3)no2)ccc1-c1cccc(F)c1C` [Example 91, N-(2-fluoro-4-{5-[3′-fluoro-2-(methoxymethyl)-2′-methylbiphenyl-4-yl]-1,2,4-oxadiazol-3-yl}benzyl)-N-methylglycine, hydrochloride salt], for which the Ki on S1P3 (setting [3]) was 2e-07 M; on S1P3 (setting [4]) it was 3.35e-07 M; on S1P1 [2] (setting [5]), 1.63e-10 M; on S1P1 [2] (setting [6]), 1.13e-09 M. Besides, the EC50 on S1P1 [1] worked out at 5.53 nM.
With `CCOc1cc(-c2nc(-c3ccc(CN(C)CC(=O)O)c(F)c3)no2)ccc1-c1ccccc1C` [Example 92, N-{4-[5-(2-ethoxy-2′-methylbiphenyl-4-yl)-1,2,4-oxadiazol-3-yl]-2-fluorobenzyl}-N-methylglycine, hydrochloride salt], the Ki on S1P3 (setting [3]) was 9.91e-08 M; on S1P1 [2] (setting [5]) it was 1.72e-10 M. The same compound yielded an EC50 on S1P1 [1] of 7.91 nM.
The like results for `COCc1cc(-c2nc(-c3cc(Cl)cc(CN(C)CC(=O)O)c3)no2)ccc1-c1ccccc1C` [Example 93, N-(3-chloro-5-{5-[2-(methoxymethyl)-2′-methylbiphenyl-4-yl]-1,2,4-oxadiazol-3-yl}benzyl)-N-methylglycine, hydrochloride salt] were, in that order, 9.4e-08 M, 3.96e-10 M and 26.5 nM.
As to `COCc1cc(-c2nc(-c3ccc(CN(C)CC(=O)O)cc3C)no2)ccc1-c1ccccc1C` [Example 102, 2-((4-(5-(2-(methoxymethyl)-2′-methylbiphenyl-4-yl)-1,2,4-oxadiazol-3-yl)-3-methylbenzyl)(methyl)amino)acetic acid], the Ki was found to be 2.9e-07 M on S1P3 (setting [3]), 6.99e-07 M at S1P3 (setting [4]) and 1.44e-09 M on S1P1 [2] (setting [6]). Besides, the EC50 on S1P1 [1] was determined as 13.7 nM.
On the same counts, the results for `COCc1cc(-c2nc(-c3ccc(CNCC(=O)O)cc3C)no2)ccc1-c1ccccc1C` [Example 106, 2-(4-(5-(2-(methoxymethyl)-2′-methylbiphenyl-4-yl)-1,2,4-oxadiazol-3-yl)-3-methylbenzylamino)acetic acid] are 1.59e-07 M, 2.96e-07 M, 4.66e-10 M and 4.12 nM.
Consider `Cc1cc(CNCC(=O)O)ccc1-c1noc(-c2ccc(-c3ccccc3C)c(C(F)(F)F)c2)n1` [Example 107, 2-(3-methyl-4-(5-(2′-methyl-2-(trifluoromethyl)biphenyl-4-yl)-1,2,4-oxadiazol-3-yl)benzylamino)acetic acid], for which the Ki at S1P3 (setting [4]) came to 2.12e-07 M; on S1P1 [2] (setting [6]) it was 4.79e-10 M. Also, a half-maximal effect on S1P1 [1] (EC50) was put at 2.84 nM.
On the same counts, the results for `COCc1cc(-c2nc(-c3cccc(CN(CCC(=O)O)C(C)C)c3)no2)ccc1-c1ccccc1C` [Example 108, N-isopropyl-N-(3-{5-[2-(methoxymethyl)-2′-methylbiphenyl-4-yl]-1,2,4-oxadiazol-3-yl}benzyl)-beta-alanine, hydrochloride salt] are 1.1e-06 M, 5.06e-10 M and 14 nM.
On the same counts, the results for `COCc1cc(-c2nc(-c3ccc(CN(C)CC(=O)O)cc3)no2)ccc1-c1ccccc1Cl` [Example 118, N-(4-{5-[2′-chloro-2-(methoxymethyl)biphenyl-4-yl]-1,2,4-oxadiazol-3-yl}benzyl)-N-methylglycine, hydrochloride salt] are 5.67e-07 M, 1.1e-09 M and 9.94 nM.
The like results for `COCc1cc(-c2nc(-c3ccc(CN(C)CC(=O)O)c(F)c3)no2)ccc1-c1ccccc1Cl` [Example 119, N-(4-{5-[2′-chloro-2-(methoxymethyl)biphenyl-4-yl]-1,2,4-oxadiazol-3-yl}-2-fluorobenzyl)-N-methylglycine, hydrochloride salt] were, in that order, 3.83e-07 M, 9.55e-10 M and 11.5 nM.
`COCc1cc(-c2nc(-c3ccc(CN(C)CC(=O)O)c(F)c3)no2)ccc1-c1cccc(F)c1Cl` [Example 121, N-(4-{5-[2′-chloro-3′-fluoro-2-(methoxymethyl)biphenyl-4-yl]-1,2,4-oxadiazol-3-yl}-2-fluorobenzyl)-N-methylglycine, hydrochloride salt]: the Ki on S1P3 (setting [4]) amounted to 5.26e-07 M; at S1P1 [2] (setting [6]), 1.54e-09 M. The same compound yielded an EC50 at S1P1 [1] of 6.56 nM.
With `COCc1cc(-c2nc(-c3ccc(CN(C)CC(=O)O)cc3)no2)ccc1-c1cccc(F)c1Cl` [Example 122, N-(4-{5-[2′-chloro-3′-fluoro-2-(methoxymethyl)biphenyl-4-yl]-1,2,4-oxadiazol-3-yl}benzyl)-N-methylglycine, hydrochloride salt], the Ki at S1P3 (setting [4]) stood at 2.5e-06 M; at S1P1 [2] (setting [6]), 1.31e-09 M. At S1P1 [1], the EC50 worked out at 5.1 nM.
As to `CCc1cc(-c2noc(-c3ccc(-c4ccccc4C)c(COC)c3)n2)ccc1CN(C)CC(=O)O` [Example 124, 2-((2-ethyl-4-(5-(2-(methoxymethyl)-2′-methylbiphenyl-4-yl)-1,2,4-oxadiazol-3-yl)benzyl)(methyl)amino)acetic acid], the Ki was determined as 4.1e-06 M at S1P3 (setting [4]) and 1.98e-09 M on S1P1 [2] (setting [6]). This compound yielded an EC50 at S1P1 [1] of 23.2 nM.
The like results for `COCc1cc(-c2nc(-c3ccc(CN(C)CC(=O)O)c(C)c3)no2)ccc1-c1ccccc1C` [Example 125, 2-((4-(5-(2-(methoxymethyl)-2′-methylbiphenyl-4-yl)-1,2,4-oxadiazol-3-yl)-2-methylbenzyl)(methyl)amino)acetic acid] were, in that order, 1.92e-06 M, 2.31e-09 M and 7.65 nM.
The like results for `COCc1cc(-c2nc(-c3cc(CN(C)CC(=O)O)cc(F)c3F)no2)ccc1-c1ccccc1C` [Example 126, N-(3,4-difluoro-5-{5-[2-(methoxymethyl)-2′-methylbiphenyl-4-yl]-1,2,4-oxadiazol-3-yl}benzyl)-N-methylglycine, hydrochloride salt] were, in that order, 6.55e-07 M, 2.88e-09 M and 47 nM.
On the same counts, the results for `COCc1cc(-c2nc(-c3ccc(CN(C)CC(=O)O)cc3)no2)ccc1-c1cc(F)ccc1C` [Example 127, N-(4-{5-[5′-fluoro-2-(methoxymethyl)-2′-methylbiphenyl-4-yl]-1,2,4-oxadiazol-3-yl}benzyl)-N-methylglycine, hydrochloride salt] are 7.6e-07 M, 1.12e-09 M and 8.68 nM.
For `COCc1cc(-c2nc(-c3ccc(CN(C)CC(=O)O)c(Cl)c3)no2)ccc1-c1ccccc1C` [Example 128, 2-((4-(5-(2-(methoxymethyl)-2′-methylbiphenyl-4-yl)-1,2,4-oxadiazol-3-yl)-2-chlorobenzyl)(methyl)amino)acetic acid], the inhibition constant (Ki) turned out to be 5.66e-07 M at S1P3 (setting [4]) and 1.45e-09 M at S1P1 [2] (setting [6]). In addition, the EC50 at S1P1 [1] came out at 13.3 nM.
`Cc1ccccc1-c1ccc(-c2nc(-c3ccc(CN(C)CC(=O)O)cc3)no2)cc1C` [Example 130, N-{4-[5-(2,2′-dimethylbiphenyl-4-yl)-1,2,4-oxadiazol-3-yl]benzyl}-N-methylglycine, hydrochloride salt]: the Ki at S1P3 (setting [4]) was 5.38e-06 M; at S1P1 [2] (setting [5]), 8.34e-10 M; at S1P1 [2] (setting [6]), 2.53e-09 M. At S1P1 [1], this compound registered an EC50 of 23.3 nM.
In the case of `Cc1ccccc1-c1ccc(-c2nc(-c3ccc(CN(C)CC(=O)O)c(F)c3)no2)cc1C` [Example 131, N-{4-[5-(2,2′-dimethylbiphenyl-4-yl)-1,2,4-oxadiazol-3-yl]-2-fluorobenzyl}-N-methylglycine, hydrochloride salt], the Ki on S1P3 (setting [4]) came out at 1.98e-06 M; on S1P1 [2] (setting [6]) it was 1.68e-09 M. At S1P1 [1], the EC50 is 16.2 nM.
On the same counts, the results for `Cc1ccccc1-c1ccc(-c2nc(-c3cccc(CN(C)CC(=O)O)c3)no2)cc1C` [Example 132, N-{3-[5-(2,2′-dimethylbiphenyl-4-yl)-1,2,4-oxadiazol-3-yl]benzyl}-N-methylglycine, hydrochloride salt] are 1.64e-06 M, 3.65e-09 M and 235 nM.
On the same counts, the results for `Cc1ccccc1-c1ccc(-c2nc(-c3cc(F)cc(CN(C)CC(=O)O)c3)no2)cc1C` [Example 133, N-{3-[5-(2,2′-dimethylbiphenyl-4-yl)-1,2,4-oxadiazol-3-yl]-5-fluorobenzyl}-N-methylglycine, hydrochloride salt] are 4.72e-07 M, 2.81e-09 M and 42.2 nM.
Consider `COC(C)c1cc(-c2nc(-c3ccc(CN(C)CC(=O)O)cc3)no2)ccc1-c1ccccc1C` (stereo not shown) [Example 140, N-(4-{5-[2-(1-methoxyethyl)-2′-methylbiphenyl-4-yl]-1,2,4-oxadiazol-3-yl}benzyl)-N-methylglycine, hydrochloride salt], for which the Ki on S1P3 (setting [3]) was determined as 1.64e-07 M; on S1P3 (setting [4]), 3.89e-07 M; at S1P1 [2] (setting [5]), 1.89e-10 M; on S1P1 [2] (setting [6]) it was 9.81e-10 M. Moreover, at S1P1 [1], the concentration giving a half-maximal response (EC50) was 3.75 nM.
For the compound `Cc1ccccc1-c1ccc(-c2nc(-c3ccc(CNCCCC(=O)O)cc3)no2)cc1C(F)(F)F` [Example 142, 4-[(4-{5-[2′-methyl-2-(trifluoromethyl)biphenyl-4-yl]-1,2,4-oxadiazol-3-yl}benzyl)amino]butanoic acid], the values for the Ki on S1P3 (setting [4]) and at S1P1 [2] (setting [6]) were 3.73e-07 M and 5.49e-10 M, respectively. The compound also had a half-maximal effective concentration (EC50) at S1P1 [1] of 0.802 nM.
